ChEMBL document CHEMBL1201862, “PubChem BioAssay data set” (2004)
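Each compound was tested at five concentrations against cells in 96-well plates for 48 hours. GI50 is the concentration that inhibits growth by half.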 The source made the active and inactive calls. Cut-off read from the data, not from the text of the source: active = GI50 up to about 1.1 µM and inactive = higher. Square brackets hold non-standard residues; d marks the D form. Peptide text beside a SMILES is read from it. * marks the point of attachment. Phe(4-NO2) = N[CH](Cc1ccc([N+](=O)[O-])cc1)C(=O)O; Cbz = O=C(OCc1ccccc1)*

Assays:
Experiment in all cases: NCI tumour cell line growth inhibition, 48 h
[1] = tested on: CCRF-CEM
[2] = tested on: HCT-15
[3] = tested on: UACC-257
[4] = tested on: A498
[5] = tested on: HCC 2998
[6] = tested on: SNB-75
[7] = tested on: HOP-92
[8] = tested on: SK-MEL-2
[9] = tested on: COLO 205
[10] = tested on: NCI/ADR-RES
[11] = tested on: RPMI-8226
[12] = tested on: OVCAR-4
[13] = tested on: EKVX
[14] = tested on: SF-268
[15] = tested on: KM12
[16] = tested on: OVCAR-3
[17] = tested on: UO-31
[18] = tested on: ACHN
[19] = tested on: M14
[20] = tested on: SR

Compound	GI50 [1]	GI50 [2] [µM]	GI50 [3]	GI50 [4]	GI50 [5]	GI50 [6]	GI50 [7]	GI50 [8]	GI50 [9]	GI50 [10]	GI50 [11]	GI50 [12]	GI50 [13]	GI50 [14]	GI50 [15]	GI50 [16]	GI50 [17]	GI50 [18]	GI50 [19]	GI50 [20]
Cc1ccc(N2C(=O)C3CSCN3C2=O)cc1 (stereo not drawn)	> 100 µM (inactive)	> 100	> 100 µM (inactive)	> 100 µM (inactive)	> 100 µM (inactive)	> 100 µM (inactive)	> 100 µM (inactive)	> 100 µM (inactive)	> 100 µM (inactive)	> 100 µM (inactive)	> 100 µM (inactive)	> 100 µM (inactive)	> 100 µM (inactive)	> 100 µM (inactive)	> 100 µM (inactive)	> 100 µM (inactive)	> 100 µM (inactive)	–	–	–
COC(=O)C(C(=O)C(=O)Nc1nnc(S)[nH]1)c1csc(-n2nc(-c3ccccc3)cc2-c2ccccc2)n1 (stereo not drawn)	> 100 µM (inactive)	> 100	> 100 µM (inactive)	> 100 µM (inactive)	> 100 µM (inactive)	3.75 µM (inactive)	44.5 µM (inactive)	–	> 100 µM (inactive)	–	> 100 µM (inactive)	> 100 µM (inactive)	33.3 µM (inactive)	> 100 µM (inactive)	> 100 µM (inactive)	> 100 µM (inactive)	5.61 µM (inactive)	> 100 µM (inactive)	> 100 µM (inactive)	> 100 µM (inactive)
N#Cc1c(OCCF)c2ccccc2n2c1nc1ccccc12	95.7 µM (inactive)	32.7	93.3 µM (inactive)	1.94 µM (inactive)	> 100 µM (inactive)	70.6 µM (inactive)	–	> 100 µM (inactive)	> 100 µM (inactive)	45.3 µM (inactive)	> 100 µM (inactive)	32.3 µM (inactive)	99.1 µM (inactive)	27 µM (inactive)	> 100 µM (inactive)	67 µM (inactive)	14.2 µM (inactive)	23.3 µM (inactive)	> 100 µM (inactive)	> 100 µM (inactive)
COc1nc(C#CCC(C)O)nc(OC)n1 (stereo not drawn)	–	18.6	30.9 µM (inactive)	30.5 µM (inactive)	–	27 µM (inactive)	–	33.7 µM (inactive)	25.4 µM (inactive)	21 µM (inactive)	–	18.8 µM (inactive)	20 µM (inactive)	21.3 µM (inactive)	24.5 µM (inactive)	19.5 µM (inactive)	18.2 µM (inactive)	17.1 µM (inactive)	16.9 µM (inactive)	21.1 µM (inactive)
CCOC(=O)C(C)NC(=O)NC12CC3CC(CC(F)(C3)C1)C2 (stereo not drawn)	76.7 µM (inactive)	–	70.1 µM (inactive)	> 100 µM (inactive)	31.8 µM (inactive)	65.3 µM (inactive)	11.5 µM (inactive)	> 100 µM (inactive)	41.7 µM (inactive)	–	88.3 µM (inactive)	–	> 100 µM (inactive)	–	> 100 µM (inactive)	42 µM (inactive)	40.2 µM (inactive)	> 100 µM (inactive)	63.8 µM (inactive)	–
COc1ccc(/C(Cl)=C(\C=O)c2ccc(F)cc2)cc1OC	10.7 µM (inactive)	12.8	–	20 µM (inactive)	–	3.22 µM (inactive)	6.32 µM (inactive)	16.4 µM (inactive)	19.6 µM (inactive)	–	6.64 µM (inactive)	–	5 µM (inactive)	13.5 µM (inactive)	–	22.8 µM (inactive)	16.4 µM (inactive)	16.8 µM (inactive)	17.6 µM (inactive)	–
NC(=O)Cn1c(=O)[nH]c(=O)c2[nH]cnc21	> 100 µM (inactive)	> 100	> 100 µM (inactive)	> 100 µM (inactive)	> 100 µM (inactive)	> 100 µM (inactive)	–	> 100 µM (inactive)	> 100 µM (inactive)	–	–	–	> 100 µM (inactive)	> 100 µM (inactive)	> 100 µM (inactive)	> 100 µM (inactive)	> 100 µM (inactive)	> 100 µM (inactive)	> 100 µM (inactive)	> 100 µM (inactive)
COc1ccc(NC(=O)CC(=O)N2N=C(N3c4ccccc4Sc4ccccc43)CC2c2ccccc2)cc1 (stereo not drawn)	> 100 µM (inactive)	> 100	> 100 µM (inactive)	–	> 100 µM (inactive)	47.6 µM (inactive)	> 100 µM (inactive)	> 100 µM (inactive)	> 100 µM (inactive)	> 100 µM (inactive)	> 100 µM (inactive)	> 100 µM (inactive)	> 100 µM (inactive)	23.4 µM (inactive)	> 100 µM (inactive)	> 100 µM (inactive)	> 100 µM (inactive)	> 100 µM (inactive)	> 100 µM (inactive)	> 100 µM (inactive)
Cc1cc(C)nc(NS(=O)(=O)c2ccc(NNC(=O)c3cccc4c(=O)c5ccccc5[nH]c34)cc2)n1	35.4 µM (inactive)	48.8	> 100 µM (inactive)	–	44.9 µM (inactive)	19.5 µM (inactive)	11.6 µM (inactive)	0.0493 µM (active)	> 100 µM (inactive)	> 100 µM (inactive)	57.5 µM (inactive)	72.3 µM (inactive)	23.1 µM (inactive)	43.2 µM (inactive)	39.5 µM (inactive)	37.3 µM (inactive)	41.6 µM (inactive)	32.4 µM (inactive)	> 100 µM (inactive)	37.5 µM (inactive)
N#CN=C(NCCO)NCCO	> 100 µM (inactive)	> 100	> 100 µM (inactive)	92.7 µM (inactive)	> 100 µM (inactive)	> 100 µM (inactive)	–	> 100 µM (inactive)	> 100 µM (inactive)	–	> 100 µM (inactive)	> 100 µM (inactive)	> 100 µM (inactive)	> 100 µM (inactive)	> 100 µM (inactive)	> 100 µM (inactive)	> 100 µM (inactive)	> 100 µM (inactive)	> 100 µM (inactive)	> 100 µM (inactive)
COCCCNc1nc(N)c(C#N)c(C#N)c1C#N	2.48 µM (inactive)	> 10	–	> 10 µM (inactive)	> 10 µM (inactive)	> 10 µM (inactive)	–	> 10 µM (inactive)	> 10 µM (inactive)	> 10 µM (inactive)	> 10 µM (inactive)	> 10 µM (inactive)	> 10 µM (inactive)	> 10 µM (inactive)	> 10 µM (inactive)	> 10 µM (inactive)	> 10 µM (inactive)	> 10 µM (inactive)	> 10 µM (inactive)	> 10 µM (inactive)
CCOC(=O)CCC(NC(=O)OCc1ccccc1)C(=O)NC(CCC(=O)OCC)C(=O)NC(CCC(=O)OCC)C(=O)NC(CCC(=O)OCC)C(=O)NC(CCC(=O)OCC)C(=O)NC(Cc1ccc([N+](=O)[O-])cc1)C(=O)NC(CCC(=O)OCC)C(=O)NC(CCC(=O)OCC)C(=O)NC(CCC(=O)OCC)C(=O)NC(CCC(=O)OCC)C(=O)NC(CCC(=O)OCC)C(=O)OCC (stereo not drawn) (Cbz-E(OEt)E(OEt)E(OEt)E(OEt)E(OEt)[Phe(4-NO2)]E(OEt)E(OEt)E(OEt)E(OEt)E(OEt)-OEt; configuration not given here)	> 50 µM (inactive)	> 50	–	> 50 µM (inactive)	> 50 µM (inactive)	> 50 µM (inactive)	–	> 50 µM (inactive)	> 50 µM (inactive)	> 50 µM (inactive)	> 50 µM (inactive)	23 µM (inactive)	> 50 µM (inactive)	> 50 µM (inactive)	> 50 µM (inactive)	> 50 µM (inactive)	> 50 µM (inactive)	> 50 µM (inactive)	16.8 µM (inactive)	> 50 µM (inactive)
COc1ccc2nc(-c3ccc(O)cc3)ccc2c1	2.16 µM (inactive)	–	> 100 µM (inactive)	–	10.4 µM (inactive)	59.7 µM (inactive)	> 100 µM (inactive)	–	> 100 µM (inactive)	–	> 100 µM (inactive)	> 100 µM (inactive)	95.5 µM (inactive)	1.22 µM (inactive)	> 100 µM (inactive)	> 100 µM (inactive)	> 100 µM (inactive)	> 100 µM (inactive)	> 100 µM (inactive)	> 100 µM (inactive)
Cc1cccc(NC(=O)/C(=N\N)C(c2cnc3ccc([N+](=O)[O-])cc3n2)[N+](=O)[O-])c1C (stereo not drawn)	> 100 µM (inactive)	53.8	> 100 µM (inactive)	–	> 100 µM (inactive)	> 100 µM (inactive)	> 100 µM (inactive)	> 100 µM (inactive)	> 100 µM (inactive)	–	–	> 100 µM (inactive)	> 100 µM (inactive)	> 100 µM (inactive)	41.8 µM (inactive)	> 100 µM (inactive)	> 100 µM (inactive)	> 100 µM (inactive)	> 100 µM (inactive)	> 100 µM (inactive)
O=C(N/N=C/c1cc(Br)cc(Br)c1O)c1ccccc1O	–	0.422	2.26 µM (inactive)	–	1.03 µM (active)	3.66 µM (inactive)	1.2 µM (inactive)	0.433 µM (active)	3.34 µM (inactive)	–	–	0.267 µM (active)	1.18 µM (inactive)	0.469 µM (active)	1.43 µM (inactive)	0.273 µM (active)	0.695 µM (active)	0.436 µM (active)	0.687 µM (active)	0.258 µM (active)
CC(=O)OC1CCC2(C)C3CCC4(C)C(c5ccc(=O)oc5)CC5OC54C3CCC2(O)C1 (stereo not drawn)	0.631 µM (active)	1.9	3.04 µM (inactive)	1.55 µM (inactive)	2.98 µM (inactive)	1.06 µM (active)	2.45 µM (inactive)	4.86 µM (inactive)	4.28 µM (inactive)	1.08 µM (active)	0.869 µM (active)	2.3 µM (inactive)	0.887 µM (active)	0.621 µM (active)	3.21 µM (inactive)	0.59 µM (active)	2.49 µM (inactive)	–	–	–
